Experimental data as given in patent US20070254881A1, “Pyrazole Derivative” (DAIICHI PHARMACEUTICAL CO., LTD., priority 2004, published 2007).

Experiments:
[1] = tested on: collagen-induced platelet aggregation; test: Platelet aggregation suppressing effect (collagen-induced aggregation in platelet rich plasma); format: cell-based; conditions: human PRP, 37° C., collagen as inducer, read-out: Inhibitory effect of collagen-induced platelet aggregation IC50
Procedure: Human blood was collected using 3.13% sodium citrate in a volume 1/10 of the blood volume, as an anticoagulant. The collected blood was centrifuged at 180 g for 10 minutes to separate platelet rich plasma (PRP) from the blood. After collecting the PRP fraction in the upper layer, the lower layer was further centrifuged at 1600 g for 10 minutes to fractionate platelet poor plasma (PPP) in the upper layer. One μl of a solution of a compound obtained in the Examples was added to 200 μl of PRP, and the mixture was allowed to stand at 37° C. for 2 minutes. Subsequently, 2 μl of collagen was added thereto, so as to induce platelet aggregation. The platelet aggregation rate was measured using PAM-12C(SSR Engineering, Inc.).

Cyclooxygenase-1 (COX-1) = biological target: T1, Cyclooxygenase-1 (COX-1) (Ovis aries, UniProt P05979); test: COX-1 inhibition, COX Inhibitor Screening Assay Kit (PGF2α production, ELISA); format: biochemical; conditions: compound 50 μM
T1 construct: purchased Cayman Chemical Company 560101
T1 sequence (P05979 25-600): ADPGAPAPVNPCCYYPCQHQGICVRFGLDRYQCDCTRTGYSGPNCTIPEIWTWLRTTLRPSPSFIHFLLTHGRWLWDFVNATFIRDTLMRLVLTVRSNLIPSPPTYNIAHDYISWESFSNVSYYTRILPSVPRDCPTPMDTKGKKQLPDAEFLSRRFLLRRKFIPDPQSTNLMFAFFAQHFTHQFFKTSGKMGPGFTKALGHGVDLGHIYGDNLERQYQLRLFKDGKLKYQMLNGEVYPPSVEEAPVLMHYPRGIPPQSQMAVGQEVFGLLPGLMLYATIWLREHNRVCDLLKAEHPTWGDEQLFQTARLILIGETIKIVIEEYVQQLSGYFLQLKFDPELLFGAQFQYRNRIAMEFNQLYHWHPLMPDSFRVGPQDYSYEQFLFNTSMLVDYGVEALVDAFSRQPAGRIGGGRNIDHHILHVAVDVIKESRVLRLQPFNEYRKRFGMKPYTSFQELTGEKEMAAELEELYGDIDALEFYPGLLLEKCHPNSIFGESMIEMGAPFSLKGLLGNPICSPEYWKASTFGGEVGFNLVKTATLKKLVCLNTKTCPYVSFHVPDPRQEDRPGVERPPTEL
Excerpt: For the measurement of the inhibitory activity of the compounds obtained in the Examples against COX-1 and COX-2, a COX Inhibitor Screening Assay Kit manufactured by Cayman Chemical Company (Catalog Nos. 560101 and 560121) was used.
Before starting the measurement, a reaction buffer, heme, arachidonic acid, SnCl2, EIA buffer, a washing buffer, prostaglandin (PG)-screening EIA standard solution, PG-screening acetylcholinesterase (AchE), a tracer […], and PG-screening EIA antiserum were provided.
A reaction solution containing a compound of the Examples (50 μM) and COX-1, or a reaction solution containing a compound of the Examples (300 μM) and COX-2 was allowed to stand at 37° C. for 10 minutes, then 10 μl of arachidonic acid was added thereto, and the resultant mixture was allowed to stand at 37° C. for 2 minutes. After the reaction, 50 μl of 1 N hydrochloric acid was added to the reaction mixture to stop the reaction, and 100 μl of a SnCl2 solution was added thereto. The resultant mixture was allowed to stand at room temperature for 5 minutes.
50 μl of antiserum (rabbit anti-PGF2α antibody) was added to each well of a 96-well plate coated with mouse anti-rabbit IgG. Then, 50 μl of a solution prepared by diluting the reaction solution for PGF2α production to 2000-folds, and 50 μl of an AchE tracer were added sequentially to the wells, and the plate was kept at room temperature for 18 hours. Each well washed 5 times with the washing buffer to remove excessive AchE tracer, and then 200 μl of Ellman reagent was added to each well. The plate was kept in the dark room for 60 minutes, and then, absorbance at 405 nm was measured.
A standard curve was produced using a PG-screening EIA standard solution, and the amount of PGF2α production was determined from the absorbance obtained as described above. The COX-1 inhibition rate at 50 μM of the compound of the Examples, and the COX-2 inhibition rate at 300 μM of the compound of the Examples were calculated.

| Compound | IC50 [1] [nM] | COX-1 inhibitory action at 50 μM (% inhibition) (Cyclooxygenase-1 (COX-1)) |
| --- | --- | --- |
| COc1ccc(-c2cc(C(=O)N3CCOCC3)nn2-c2ccc(C)nc2)nc1 [Example 1, 4-[5-(5-Methoxy-2-pyridyl)-1-(6-methyl-3-pyridyl)-1H-pyrazole-3-carbonyl]morpholine] | 210 | −13.3 |
| Cc1ccc(-n2nc(C(=O)N3CCC(F)(F)CC3)cc2-c2cnc(C)cn2)cn1 [Example 2, 1-[5-(5-Methyl-2-pyrazinyl)-1-(6-methyl-3-pyridyl)-1H-pyrazole-3-carbonyl]-4,4-difluoropiperidine] | 130 | −1.2 |
| COC1CCN(C(=O)c2cc(-c3cnc(C)cn3)n(-c3ccc(C)nc3)n2)CC1 [Example 3, 1-[5-(5-Methyl-2-pyrazinyl)-1-(6-methyl-3-pyridyl)-1H-pyrazole-3-carbonyl]-4-methoxypiperidine] | 220 | −21.2 |
| COc1ccc(-c2cc(C(=O)N3CCC(OC)CC3)nn2-c2ccc(C)nc2)nc1 [Example 4, 1-[5-(5-Methoxy-2-pyridyl)-1-(6-methyl-3-pyridyl)-1H-pyrazole-3-carbonyl]-4-methoxypiperidine] | 210 | −13.3 |
| COc1ccc(-n2nc(C(=O)N3CCCCN3)cc2-c2ccccn2)nn1 [Example 5, 1-[1-(6-Methoxy-3-pyridazinyl)-5-(2-pyridyl)-1H-pyrazole-3-carbonyl]hexahydropyridazine] | 210 | −35.9 |
| COc1ccc(-n2nc(C(=O)N3CCN(C)C(=O)C3)cc2-n2cccc2)cn1 [Example 10, 1-[1-(6-Methoxy-3-pyridyl)-5-(1H-pyrrol-1-yl)-1H-pyrazole-3-carbonyl]-4-methyl-3-oxopiperazine] | 190 | 54.1 |
| COc1ccc(-n2nc(C(=O)N3CCN(C)CC3)cc2-c2ccc[nH]2)nn1 [Example 12, 1-[1-(6-Methoxy-3-pyridazinyl)-5-(1H-pyrrol-2-yl)-1H-pyrazole-3-carbonyl]-4-methylpiperazine] | 320 | 25.9 |
| COc1ccc(-n2nc(C(=O)N3CCC(OC)CC3)cc2-c2ccc[nH]2)nn1 [Example 14, 1-[1-(6-Methoxy-3-pyridazinyl)-5-(1H-pyrrol-2-yl)-1H-pyrazole-3-carbonyl]-4-methoxypiperidine] | 120 | 39.3 |
| Cc1ccc(-n2nc(C(=O)N3CCOCC3)cc2-c2ccn(C)c2)cn1 [Example 16, 4-[1-(6-Methyl-3-pyridyl)-5-(1-methyl-1H-pyrrol-3-yl)-1H-pyrazole-3-carbonyl]morpholine] | 120 | −5.2 |
| Cc1ccc(-c2cc(C(=O)N3CCC(F)(F)CC3)nn2-c2ccc(C)nn2)nc1 [Example 18, 1-[1-(6-Methyl-3-pyridazinyl)-5-(5-methyl-2-pyridyl)-1H-pyrazole-3-carbonyl]-4,4-difluoropiperidine] | 200 | −3.0 |
| COc1ccc(-n2nc(C(=O)N3CCC(OC)CC3)cc2-c2ccccn2)cn1 [Example 20, 1-[1-(6-Methoxy-3-pyridyl)-5-(2-pyridyl)-1H-pyrazole-3-carbonyl]-4-methoxypiperidine] | 120 | −17.0 |
| COc1ccc(-n2nc(C(=O)N3CCCC3C)cc2-c2ccccn2)nn1 (stereo not shown) [Example 27, 1-[1-(6-Methoxy-3-pyridazinyl)-5-(2-pyridyl)-1H-pyrazole-3-carbonyl]-2-methylpyrrolidine] | 91 | −10.2 |
| COc1ccc(-n2nc(C(=O)N3CCC[C@H]3CF)cc2-c2ccccn2)nn1 [Example 31, (2S)-1-[1-(6-Methoxy-3-pyridazinyl)-5-(2-pyridyl)-1H-pyrazole-3-carbonyl]-2-fluoromethylpyrrolidine] | 180 | −10.5 |
| Cc1ccc(-n2nc(C(=O)N3CCC(F)CC3)cc2-c2cnc(C)cn2)cn1 [Example 32, 1-[5-(5-Methyl-2-pyrazinyl)-1-(6-methyl-3-pyridyl)-1H-pyrazole-3-carbonyl]-4-fluoropiperidine] | 210 | −8.4 |
| COc1ccc(-n2nc(C(=O)N3CCOCC3)cc2-c2cc[nH]n2)cn1 [Example 33, 4-[1-(6-Methoxy-3-pyridyl)-5-(1H-pyrazol-3-yl)-1H-pyrazole-3-carbonyl]morpholine] | 97 | −9.5 |
| COc1ccc(-n2nc(C(=O)N3CCC(OC)CC3)cc2-c2cscn2)cn1 [Example 128, 1-[1-(6-Methoxy-3-pyridyl)-5-(thiazol-4-yl)-1H-pyrazole-3-carbonyl]-4-methoxypiperidine] | 100 | – |
| COc1ccc(-n2nc(C(=O)N3CCCCC3C(N)=O)cc2-c2cscn2)cn1 (stereo not shown) [Example 129, 1-[1-(6-Methoxy-3-pyridyl)-5-(thiazol-4-yl)-1H-pyrazole-3-carbonyl]-2-carbamoylpiperidine] | 260 | – |
| COc1ccc(-n2nc(C(=O)N3CCN(C)CC3)cc2-c2cscn2)nn1 [Example 131, 1-[1-(6-Methoxy-3-pyridazinyl)-5-(thiazol-4-yl)-1H-pyrazole-3-carbonyl]-4-methylpiperazine] | 320 | – |
| COc1ccc(-n2nc(C(=O)N3CCC(OC)CC3)cc2-c2cscn2)nn1 [Example 132, 1-[1-(6-Methoxy-3-pyridazinyl)-5-(thiazol-4-yl)-1H-pyrazole-3-carbonyl]-4-methoxypiperidine] | 190 | – |
| COc1ccc(-n2nc(C(=O)N3CCC(F)(F)CC3)cc2-c2cscn2)nn1 [Example 133, 1-[1-(6-Methoxy-3-pyridazinyl)-5-(thiazol-4-yl)-1H-pyrazole-3-carbonyl]-4,4-difluoropiperidine] | 80 | – |
| COc1ccc(-n2nc(C(=O)N3CCCCN3)cc2-c2cnn(C)c2)cn1 [Example 134, 1-[1-(6-Methoxy-3-pyridyl)-5 (1-methyl-1H-pyrazol-4-yl)-1H-pyrazole-3-carbonyl]hexahydropyridazine] | 40 | – |
| COc1ccc(-n2nc(C(=O)N3CCCOCC3)cc2-c2cnn(C)c2)cn1 [Example 136, 4-[1-(6-Methoxy-3-pyridyl)-5-(1-methyl-1H-pyrazol-4-yl)-1H-pyrazole-3-carbonyl]-1,4-oxazepane] | 360 | – |
| COc1ccc(-n2nc(C(=O)N3CCCOCC3)cc2-c2cscn2)nn1 [Example 137, 4-[1-(6-Methoxy-3-pyridazinyl)-5-(thiazol-4-yl)-1H-pyrazole-3-carbonyl]-1,4-oxazepane] | 80 | – |
| COc1ccc(-n2nc(C(=O)N3CCCCN3)cc2-c2cscn2)cn1 [Example 138, 1-[1-(6-Methoxy-3-pyridyl)-5-(thiazol-4-yl)-1H-pyrazole-3-carbonyl]hexahydropyridazine] | 41 | – |
| COc1ccc(-n2nc(C(=O)N3CCCOCC3)cc2-c2cscn2)cn1 [Example 139, 4-[1-(6-Methoxy-3-pyridyl)-5-(thiazol-4-yl)-1H-pyrazole-3-carbonyl]-1,4-oxazepane] | 41 | – |
